From ChEMBL document CHEMBL3352759, “Reduction in lipophilicity improved the solubility, plasma-protein binding, and permeability of tertiary sulfonamide RORc inverse agonists” (Bioorg Med Chem Lett, 2014)

Legend:
[1] = Apparent permeability from basolateral to apical side of MDCK cells at 2 uM by LC-MS/MS analysis; format: ADME, cell-based, Canis lupus familiaris; settings: dog
[2] = Apparent permeability from apical to basolateral side of MDCK cells at 2 uM by LC-MS/MS analysis; format: ADME, cell-based, Canis lupus familiaris; settings: dog

| Structure (SMILES) | Papp B→A at 2 µM [1] [×10⁻⁶ cm/s] | Papp A→B at 2 µM [2] [×10⁻⁶ cm/s] |
| --- | --- | --- |
| CC(C)CN(Cc1ccc(-c2ccc(S(C)(=O)=O)cc2)cc1)S(=O)(=O)Cc1ccccc1 | 2 | 3 |
| CC(=O)N1CCN(c2ccc(CN(C3CCC3)S(=O)(=O)Cc3ccccc3)cc2)CC1 | 24 | 24 |
